Results: ChEMBL document CHEMBL1156212, “Curcumin derivatives inhibit testicular 17beta-hydroxysteroid dehydrogenase 3” (Bioorg Med Chem Lett, 2010)
The source made the active and inactive calls. The rule behind the calls is not given here.

How the values were obtained:
[1] = target: T1, 17-beta-hydroxysteroid dehydrogenase type 3 (Homo sapiens, UniProt P37058); assay: Inhibition of 17beta-HSD3 in human testis microsomes
T1 sequence (P37058 whole entry): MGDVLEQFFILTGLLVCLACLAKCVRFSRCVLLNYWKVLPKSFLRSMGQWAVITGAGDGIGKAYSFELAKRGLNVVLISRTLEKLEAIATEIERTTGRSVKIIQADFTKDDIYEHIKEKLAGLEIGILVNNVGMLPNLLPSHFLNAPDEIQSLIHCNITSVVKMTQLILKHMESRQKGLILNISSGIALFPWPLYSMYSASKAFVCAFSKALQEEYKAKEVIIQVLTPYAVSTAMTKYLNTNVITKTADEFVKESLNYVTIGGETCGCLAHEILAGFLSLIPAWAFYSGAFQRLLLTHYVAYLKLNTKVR

[2] = target: T2, 17-beta-hydroxysteroid dehydrogenase type 3 (Rattus norvegicus) (UniProt O54939); assay: Inhibition of 17beta-HSD3 in Sprague-Dawley rat laydig cells at 100 uM
T2 sequence (whole entry): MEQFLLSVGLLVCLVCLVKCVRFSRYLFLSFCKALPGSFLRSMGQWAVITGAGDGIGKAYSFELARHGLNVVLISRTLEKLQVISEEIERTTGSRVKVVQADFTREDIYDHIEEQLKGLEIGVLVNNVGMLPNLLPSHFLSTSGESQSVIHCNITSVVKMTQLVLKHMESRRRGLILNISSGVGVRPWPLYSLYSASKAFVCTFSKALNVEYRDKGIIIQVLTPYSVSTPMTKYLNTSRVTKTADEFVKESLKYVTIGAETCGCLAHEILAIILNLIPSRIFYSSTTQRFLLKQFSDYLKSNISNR

[3] = target: T2, 17-beta-hydroxysteroid dehydrogenase type 3 (Rattus norvegicus); assay: Inhibition of 17beta-HSD3 in Sprague-Dawley rat testis microsomes at 100 uM
[4] = target: T3, 17-beta-hydroxysteroid dehydrogenase type 3 (Rattus norvegicus, UniProt O54939); assay: Inhibition of 17beta-HSD3 in Sprague-Dawley rat testis microsomes
T3 sequence (O54939 whole entry): T2 sequence (whole entry)

[5] = target: T3, 17-beta-hydroxysteroid dehydrogenase type 3; assay: Inhibition of 17beta-HSD3 in Sprague-Dawley rat laydig cells
[6] = target: T4, 17-beta-hydroxysteroid dehydrogenase type 3 (Homo sapiens) (UniProt P37058); assay: Inhibition of 17beta-HSD3 in human testis microsomes at 100 uM
T4 sequence (whole entry): T1 sequence (P37058 whole entry)

[7] = target: T1, 17-beta-hydroxysteroid dehydrogenase type 3; assay: Inhibition of 17beta-HSD3
[8] = target: T4, 17-beta-hydroxysteroid dehydrogenase type 3 (Homo sapiens); conditions: Testis, Microsomes, 1 to 10 uM
Description: Uncompetitive inhibition of 17beta-HSD3 in human testis microsomes at 1 to 10 uM by Lineweaver-Burke plot analysis

[9] = Inhibition of LH-stimulated testosterone production in Sprague-Dawley rat leydig cells at 10 uM after 18 hrs by tritium based radio immuno assay relative to control; type: functional; conditions: read-out: INH
[10] = target: T2, 17-beta-hydroxysteroid dehydrogenase type 3 (Rattus norvegicus); assay: Uncompetitive inhibition of 17beta-HSD3 in Sprague-Dawley rat testis microsomes at 1 to 10 uM by Lineweaver-Burke plot analysis; conditions: Microsome

## CN(C)c1ccc(/C=C/C(=O)/C=C/c2ccc(N(C)C)cc2)cc1
[1]
  IC50: 2400 nM
[2]
  inhibition: inactive
[3]
  inhibition: 15%

## COc1cc(/C=C2\CCC/C(=C\c3cc(OC)c(OC)c(OC)c3)C2=O)cc(OC)c1OC
[1]
  IC50: 100 nM
[4]
  IC50: 1800 nM
[5]
  IC50: > 100000 nM

## O=C1/C(=C/c2ccc(F)cc2)CCC/C1=C\c1ccc(F)cc1
[2]
  inhibition: inactive
[6]
  inhibition: inactive
[3]
  inhibition: inactive

## O=C1/C(=C/c2cccc(Br)c2)CC/C1=C\c1cccc(Br)c1
[2]
  inhibition: 30%
[4]
  IC50: 700 nM
[6]
  inhibition: 14%

## COc1cc(/C=C2\CC/C(=C\c3ccc(OC4CCCOC4)c(OC)c3)C2=O)ccc1OC1CCCOC1 (stereo unspecified)
[2]
  inhibition: inactive
[6]
  inhibition: inactive
[3]
  inhibition: inactive

## C[C@]12CC[C@H](OCCc3ccccc3)CC1CC[C@@H]1[C@@H]2CC[C@]2(C)C(=O)CC[C@@H]12 (stereo partly specified)
[7]
  IC50: 57 nM

## CN(C)c1ccc(/C=C2\CC/C(=C\c3ccc(N(C)C)cc3)C2=O)cc1
[2]
  inhibition: inactive
[6]
  inhibition: inactive
[3]
  inhibition: inactive

## O=C(/C=C/c1ccc(OC2CCCOC2)cc1)/C=C/c1ccc(OC2CCCOC2)cc1 (stereo unspecified)
[6]
  inhibition: 22%
[3]
  inhibition: 29%
[5]
  IC50: 1300 nM

## O=C1/C(=C/c2ccc(F)cc2)CC/C1=C\c1ccc(F)cc1
[2]
  inhibition: 14%
[6]
  inhibition: 11%
[3]
  inhibition: 15%

## O=C1/C(=C/c2ccc(OC3CCCOC3)cc2)CC/C1=C\c1ccc(OC2CCCOC2)cc1 (stereo unspecified)
[2]
  inhibition: inactive
[6]
  inhibition: inactive
[3]
  inhibition: 13%

## CCOc1ccc(/C=C/C(=O)/C=C/c2ccc(OCC)cc2)cc1
[6]
  inhibition: 16%
[3]
  inhibition: 16%
[5]
  IC50: 70 nM

## O=C1/C(=C/c2ccc(O)cc2)CC/C1=C\c1ccc(O)cc1
[2]
  inhibition: 18%
[6]
  inhibition: 28%
[3]
  inhibition: 15%

## O=C(/C=C/c1cccc(Br)c1)/C=C/c1cccc(Br)c1
[1]
  IC50: 2700 nM
[2]
  inhibition: 20%
[4]
  IC50: 8500 nM

## O=C1C=CC(=O)C(c2ccc(-c3ccccc3)cc2)=C1
[1]
  IC50: 2700 nM

## COc1cc(/C=C/C(=O)/C=C/c2ccc(OC3CCCOC3)c(OC)c2)ccc1OC1CCCOC1 (stereo unspecified)
[2]
  inhibition: inactive
[6]
  inhibition: 20%
[3]
  inhibition: 35%

## O=C1/C(=C/c2cccc(C(F)(F)F)c2F)CC/C1=C\c1cccc(C(F)(F)F)c1F
[2]
  inhibition: inactive
[6]
  inhibition: inactive
[3]
  inhibition: 23%

## COc1cc(/C=C/C(=O)CC(=O)/C=C/c2ccc(O)c(OC)c2)ccc1O [CURCUMIN]
[8]
  inhibition: Active
[1]
  IC50: 67300 nM
[9]
  inhibition at 10 µM: 64%
[10]
  inhibition: Active
[4]
  IC50: 2300 nM
[5]
  IC50: 9000 nM

## O=C1/C(=C/c2cccc(Br)c2)CCC/C1=C\c1cccc(Br)c1
[2]
  inhibition: 25%
[6]
  inhibition: 15%
[3]
  inhibition: 40%

## O=C(/C=C/c1ccc(O)cc1)/C=C/c1ccc(O)cc1
[2]
  inhibition: 30%
[6]
  inhibition: 46%
[3]
  inhibition: 33%

## O=C1/C(=C/c2ccc(O)cc2)CCC/C1=C\c1ccc(O)cc1
[2]
  inhibition: 13%
[6]
  inhibition: 38%
[3]
  inhibition: 34%

## CN(C)c1ccc(/C=C2\CCC/C(=C\c3ccc(N(C)C)cc3)C2=O)cc1
[2]
  inhibition: 12%
[6]
  inhibition: 17%
[3]
  inhibition: 10%

## COc1cc(/C=C2\CCC/C(=C\c3ccc(OC4CCCOC4)c(OC)c3)C2=O)ccc1OC1CCCOC1 (stereo unspecified)
[2]
  inhibition: 26%
[6]
  inhibition: inactive
[3]
  inhibition: 27%

## CCOc1ccc(/C=C2\CC/C(=C\c3ccc(OCC)cc3)C2=O)cc1
[2]
  inhibition: 14%
[6]
  inhibition: inactive
[3]
  inhibition: inactive

## COc1cc(/C=C2\CC/C(=C\c3cc(OC)c(OC)c(OC)c3)C2=O)cc(OC)c1OC
[2]
  inhibition: 11%
[6]
  inhibition: inactive
[3]
  inhibition: inactive

## COc1cc(/C=C/C(=O)/C=C/c2cc(OC)c(OC)c(OC)c2)cc(OC)c1OC
[2]
  inhibition: inactive
[6]
  inhibition: inactive
[3]
  inhibition: inactive

## COc1cc(/C=C2\CC/C(=C\c3ccc(OCCCN(C)C)c(OC)c3)C2=O)ccc1OCCCN(C)C
[2]
  inhibition: 38%
[6]
  inhibition: 28%
[3]
  inhibition: 32%

## O=C1/C(=C/c2ccc(OC3CCCOC3)cc2)CCC/C1=C\c1ccc(OC2CCCOC2)cc1 (stereo unspecified)
[2]
  inhibition: 16%
[6]
  inhibition: inactive
[3]
  inhibition: 21%

## CCOc1ccc(/C=C2\CCC/C(=C\c3ccc(OCC)cc3)C2=O)cc1
[2]
  inhibition: inactive
[6]
  inhibition: 13%
[3]
  inhibition: 16%

## O=C(/C=C/c1ccc(F)cc1)/C=C/c1ccc(F)cc1
[4]
  IC50: 3300 nM
[6]
  inhibition: 39%
[5]
  IC50: 100 nM
